The record followed here is US9249194B2 (priority 2009, dated 2016).

Common to all, as to type: cell-based
In experiment [1] the test system is SH-SY5Y human neuroblastoma cells.
Experiment [2] has the same test system. The source holds these as a separate data set.
For experiment [3] the test system is unchanged. This is another data set of the same source.

Turning to `OO` [H2O2, hydrogen peroxide], in experiment [1], the “neurite retraction after hydrogen peroxide treatment” value was “neurites shorten”.

Take `CCCC(=O)Nc1ncnc2c1ncn2[C@@H]1O[C@@H]2COP(=O)(O)O[C@H]2[C@H]1OC(=O)CCC` [db-cAMP, dibutyril c-AMP]: the “elongation / length of the neurites” value in experiment [2] is “triggers elongation of neurites”.

As to lysophosphatidic acid [LPA], in experiment [3], the “length / collapsing of neurites with increasing doses of LPA” value is reported as “linear retraction of the length of the neurites” and the “neurites after LPA treatment (retraction or preservation)” value is recorded as “retraction of the neurites”.
